Results: US20100267561A1, “HERBICIDAL PYRIDAZINONE DERIVATIVES” (priority 2007, published 2010)

How the values were obtained:
Test in all cases: Test B pre-/postemergence plant response
Type in all cases: in vivo
Details in all cases: Preemergence
[1] = tested on: kochia (Kochia scoparia)
In short: (§1)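 Preemergence and postemergence (plants 2-18 cm, 1- to 4-leaf stage) applications used test chemicals in a non-phytotoxic solvent with surfactant. Plants were held in a greenhouse 13 to 15 days, then rated visually against controls on a 0-100 scale (0 no effect, 100 complete control).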

[2] = tested on: goosegrass (Eleusine indica)
In short: as §1

[3] = tested on: soybean (Glycine max)
In short: as §1

[4] = tested on: downy bromegrass (Bromus tectorum)
In short: as §1

[5] = tested on: woolly cupgrass (Eriochloa villosa)
In short: as §1

[6] = tested on: catchweed bedstraw (Galium aparine)
In short: as §1

[7] = tested on: common ragweed (Ambrosia elation)
In short: as §1

[8] = tested on: cocklebur (Xanthium strumarium)
In short: as §1

[9] = tested on: common (oilseed) sunflower (Helianthus annuus)
In short: as §1

[10] = tested on: pigweed (Amaranthus retroflexus)
In short: as §1

[11] = tested on: surinam grass (Brachiaria decumbens)
In short: as §1

[12] = tested on: Russian thistle (Salsola iberica)
In short: as §1

[13] = tested on: Italian ryegrass (Lolium multiflorum)
In short: as §1

[14] = tested on: large crabgrass (Digitaria sanguinalis)
In short: as §1

[15] = 16 g ai/ha, scale 0 to 100 (0 no effect, 100 complete control)
[16] = 31 g ai/ha, 0 to 100 scale, 0 no effect, 100 complete control

Question: How did the “Plant response rating, Kochia” value [1, 15] turn out when `Cc1cn(-c2ccc(Cl)cc2)nc1-c1c(O)cnn(C)c1=O` [Compound 30, 4-[1-(4-chlorophenyl)-4-methyl-1H-pyrazol-3-yl]-5-hydroxy-2-methyl-3(2H)-pyridazinone] was run?
Answer: 0

Question: And the “Plant response rating, Kochia” value [1, 16]?
Answer: 0

Question: What about the “Plant response rating, Kochia” value ([1]; 62 g ai/ha, scale 0 to 100) of the same compound?
Answer: 0

Question: And the “Kochia plant response rating” value ([1]; 8 g ai/ha, scale 0 to 100)?
Answer: 0

Question: And the pest or weed control at 16 g/ha ([2]; Eleusine indica, pre-emergence, 16 g ai/ha, scale 0 to 100 (0 no effect, 100 complete control), read-out: Plant response rating, Goosegrass)?
Answer: 80%

Question: What about the pest or weed control at 31 g/ha ([2]; Eleusine indica, pre-emergence, 31 g ai/ha, 0 to 100 scale, 0 no effect, 100 complete control, read-out: Plant response rating, Goosegrass) of the same compound?
Answer: 100%

Question: And the pest or weed control at 62 g/ha ([2]; Eleusine indica, pre-emergence, 62 g ai/ha, scale 0 to 100, read-out: Plant response rating, Goosegrass)?
Answer: 100%

Question: What about the “Goosegrass plant response rating” value ([2]; 8 g ai/ha, scale 0 to 100) of the same compound?
Answer: 80

Question: What about the plant injury at 16 g/ha ([3]; Glycine max, pre-emergence, 16 g ai/ha, scale 0 to 100 (0 no effect, 100 complete control), read-out: Plant response rating, Soybean) of the same compound?
Answer: 0%

Question: And the plant injury at 31 g/ha ([3]; Glycine max, pre-emergence, 31 g ai/ha, 0 to 100 scale, 0 no effect, 100 complete control, read-out: Plant response rating, Soybean)?
Answer: 0%

Question: What about the plant injury at 62 g/ha ([3]; Glycine max, pre-emergence, 62 g ai/ha, scale 0 to 100, read-out: Plant response rating, Soybean) of the same compound?
Answer: 0%

Question: What about the “Soybean plant response rating” value ([3]; 8 g ai/ha, scale 0 to 100) of the same compound?
Answer: 0

Question: What about the pest or weed control at 16 g/ha ([4]; Bromus tectorum, pre-emergence, 16 g ai/ha, scale 0 to 100 (0 no effect, 100 complete control), read-out: Plant response rating, Bromegrass, Downy) of the same compound?
Answer: 10%

Question: What about the pest or weed control at 31 g/ha ([4]; Bromus tectorum, pre-emergence, 31 g ai/ha, 0 to 100 scale, 0 no effect, 100 complete control, read-out: Plant response rating, Bromegrass, Downy) of the same compound?
Answer: 10%

Question: And the pest or weed control at 62 g/ha ([4]; Bromus tectorum, pre-emergence, 62 g ai/ha, scale 0 to 100, read-out: Plant response rating, Bromegrass, Downy)?
Answer: 85%

Question: And the “Bromegrass, Downy plant response rating” value ([4]; 8 g ai/ha, scale 0 to 100)?
Answer: 0

Question: What about the pest or weed control at 16 g/ha ([5]; Eriochloa villosa, pre-emergence, 16 g ai/ha, scale 0 to 100 (0 no effect, 100 complete control), read-out: Plant response rating, Cupgrass, Woolly) of the same compound?
Answer: 75%

Question: What about the pest or weed control at 31 g/ha ([5]; Eriochloa villosa, pre-emergence, 31 g ai/ha, 0 to 100 scale, 0 no effect, 100 complete control, read-out: Plant response rating, Cupgrass, Woolly) of the same compound?
Answer: 98%

Question: And the pest or weed control at 62 g/ha ([5]; Eriochloa villosa, pre-emergence, 62 g ai/ha, scale 0 to 100, read-out: Plant response rating, Cupgrass, Woolly)?
Answer: 100%

Question: What about the “Cupgrass, Woolly plant response rating” value ([5]; 8 g ai/ha, scale 0 to 100) of the same compound?
Answer: 50

Question: And the pest or weed control at 16 g/ha ([6]; Galium aparine, pre-emergence, 16 g ai/ha, scale 0 to 100 (0 no effect, 100 complete control), read-out: Plant response rating, Galium)?
Answer: 0%

Question: What about the pest or weed control at 31 g/ha ([6]; Galium aparine, pre-emergence, 31 g ai/ha, 0 to 100 scale, 0 no effect, 100 complete control, read-out: Plant response rating, Galium) of the same compound?
Answer: 0%

Question: And the pest or weed control at 62 g/ha ([6]; Galium aparine, pre-emergence, 62 g ai/ha, scale 0 to 100, read-out: Plant response rating, Galium)?
Answer: 0%

Question: And the “Galium plant response rating” value ([6]; 8 g ai/ha, scale 0 to 100)?
Answer: 0

Question: What about the pest or weed control at 16 g/ha ([7]; Ambrosia, pre-emergence, 16 g ai/ha, scale 0 to 100 (0 no effect, 100 complete control), read-out: Plant response rating, Ragweed) of the same compound?
Answer: 0%

Question: And the pest or weed control at 31 g/ha ([7]; Ambrosia, pre-emergence, 31 g ai/ha, 0 to 100 scale, 0 no effect, 100 complete control, read-out: Plant response rating, Ragweed)?
Answer: 0%

Question: And the pest or weed control at 62 g/ha ([7]; Ambrosia, pre-emergence, 62 g ai/ha, scale 0 to 100, read-out: Plant response rating, Ragweed)?
Answer: 0%

Question: And the “Ragweed plant response rating” value ([7]; 8 g ai/ha, scale 0 to 100)?
Answer: 0

Question: What about the “Cocklebur plant response rating” value ([8]; 8 g ai/ha, scale 0 to 100) of the same compound?
Answer: 0

Question: And the pest or weed control at 16 g/ha ([8]; Xanthium strumarium, pre-emergence, 16 g ai/ha, scale 0 to 100 (0 no effect, 100 complete control), read-out: Plant response rating, Cocklebur)?
Answer: 0%

Question: What about the pest or weed control at 31 g/ha ([8]; Xanthium strumarium, pre-emergence, 31 g ai/ha, 0 to 100 scale, 0 no effect, 100 complete control, read-out: Plant response rating, Cocklebur) of the same compound?
Answer: 0%

Question: What about the pest or weed control at 62 g/ha ([8]; Xanthium strumarium, pre-emergence, 62 g ai/ha, scale 0 to 100, read-out: Plant response rating, Cocklebur) of the same compound?
Answer: 0%

Question: And the pest or weed control at 16 g/ha ([9]; Helianthus annuus, pre-emergence, 16 g ai/ha, scale 0 to 100 (0 no effect, 100 complete control), read-out: Plant response rating, Sunflower)?
Answer: 0%

Question: What about the pest or weed control at 31 g/ha ([9]; Helianthus annuus, pre-emergence, 31 g ai/ha, 0 to 100 scale, 0 no effect, 100 complete control, read-out: Plant response rating, Sunflower) of the same compound?
Answer: 0%

Question: What about the pest or weed control at 62 g/ha ([9]; Helianthus annuus, pre-emergence, 62 g ai/ha, scale 0 to 100, read-out: Plant response rating, Sunflower) of the same compound?
Answer: 0%

Question: What about the “Sunflower plant response rating” value ([9]; 8 g ai/ha, scale 0 to 100) of the same compound?
Answer: 0

Question: And the pest or weed control at 16 g/ha ([10]; Amaranthus retroflexus, pre-emergence, 16 g ai/ha, scale 0 to 100 (0 no effect, 100 complete control), read-out: Plant response rating, Pigweed)?
Answer: 0%

Question: And the pest or weed control at 31 g/ha ([10]; Amaranthus retroflexus, pre-emergence, 31 g ai/ha, 0 to 100 scale, 0 no effect, 100 complete control, read-out: Plant response rating, Pigweed)?
Answer: 0%

Question: And the pest or weed control at 62 g/ha ([10]; Amaranthus retroflexus, pre-emergence, 62 g ai/ha, scale 0 to 100, read-out: Plant response rating, Pigweed)?
Answer: 0%

Question: What about the “Pigweed plant response rating” value ([10]; 8 g ai/ha, scale 0 to 100) of the same compound?
Answer: 0

Question: What about the “Surinam Grass plant response rating” value ([11]; 8 g ai/ha, scale 0 to 100) of the same compound?
Answer: 10

Question: What about the pest or weed control at 16 g/ha ([11]; Urochloa decumbens, pre-emergence, 16 g ai/ha, scale 0 to 100 (0 no effect, 100 complete control), read-out: Plant response rating, Surinam Grass) of the same compound?
Answer: 60%

Question: And the pest or weed control at 31 g/ha ([11]; Urochloa decumbens, pre-emergence, 31 g ai/ha, 0 to 100 scale, 0 no effect, 100 complete control, read-out: Plant response rating, Surinam Grass)?
Answer: 90%

Question: What about the pest or weed control at 62 g/ha ([11]; Urochloa decumbens, pre-emergence, 62 g ai/ha, scale 0 to 100, read-out: Plant response rating, Surinam Grass) of the same compound?
Answer: 95%

Question: And the “Plant response rating, Russian Thistle” value [12, 15]?
Answer: 0

Question: And the “Plant response rating, Russian Thistle” value [12, 16]?
Answer: 0

Question: What about the “Plant response rating, Russian Thistle” value ([12]; 62 g ai/ha, scale 0 to 100) of the same compound?
Answer: 0

Question: What about the “Russian Thistle plant response rating” value ([12]; 8 g ai/ha, scale 0 to 100) of the same compound?
Answer: 0

Question: And the pest or weed control at 16 g/ha ([13]; Lolium multiflorum, pre-emergence, 16 g ai/ha, scale 0 to 100 (0 no effect, 100 complete control), read-out: Plant response rating, Ryegrass, Italian)?
Answer: 10%

Question: What about the pest or weed control at 31 g/ha ([13]; Lolium multiflorum, pre-emergence, 31 g ai/ha, 0 to 100 scale, 0 no effect, 100 complete control, read-out: Plant response rating, Ryegrass, Italian) of the same compound?
Answer: 50%

Question: And the pest or weed control at 62 g/ha ([13]; Lolium multiflorum, pre-emergence, 62 g ai/ha, scale 0 to 100, read-out: Plant response rating, Ryegrass, Italian)?
Answer: 100%

Question: What about the “Ryegrass, Italian plant response rating” value ([13]; 8 g ai/ha, scale 0 to 100) of the same compound?
Answer: 0

Question: What about the pest or weed control at 16 g/ha ([14]; Digitaria sanguinalis, pre-emergence, 16 g ai/ha, scale 0 to 100 (0 no effect, 100 complete control), read-out: Plant response rating, Crabgrass, Large) of the same compound?
Answer: 90%

Question: And the pest or weed control at 31 g/ha ([14]; Digitaria sanguinalis, pre-emergence, 31 g ai/ha, 0 to 100 scale, 0 no effect, 100 complete control, read-out: Plant response rating, Crabgrass, Large)?
Answer: 100%

Question: What about the pest or weed control at 62 g/ha ([14]; Digitaria sanguinalis, pre-emergence, 62 g ai/ha, scale 0 to 100, read-out: Plant response rating, Crabgrass, Large) of the same compound?
Answer: 100%

Question: What about the “Crabgrass, Large plant response rating” value ([14]; 8 g ai/ha, scale 0 to 100) of the same compound?
Answer: 80
